Results reported in patent publication US10253039B2, “Inhibitors of bacterial DNA gyrase with efficacy against gram-negative bacteria” (priority 2014, dated 2019).
Values after ≈ are worked out from the molar mass of the structure shown. Like-named read-outs stand apart in the source and are kept apart here.

Tests used:
E. coli BW25113 ΔtolC = test: MIC, microdilution in 96-well plates
[1] = tested on: E. coli BW25113 ΔtolC gyrR isolate GyrA Pro35Thr; test: MIC against gyramide-resistant mutant
[2] = tested on: E. coli BW25113 ΔtolC gyrR isolate GyrA Ser97Pro; test: MIC against gyramide-resistant mutant
[3] = tested on: E. coli BW25113 ΔtolC gyrR isolate GyrA Phe96Leu; test: MIC against gyramide-resistant mutant
[4] = tested on: E. coli BW25113 ΔtolC gyrR isolate GyrA His45Tyr; test: MIC against gyramide-resistant mutant
[5] = tested on: E. coli BW25113 ΔtolC gyrR isolate GyrB Thr508Met; test: MIC against gyramide-resistant mutant
[6] = tested on: E. coli BW25113 ΔtolC cipR isolate GyrA Ser83Leu; test: MIC against ciprofloxacin-resistant mutant
[7] = tested on: E. coli BW25113 ΔtolC cipR isolate GyrA Asp87Gly; test: MIC against ciprofloxacin-resistant mutant
[8] = tested on: E. coli BW25113 ΔtolC cipR isolate GyrA Asp87Tyr; test: MIC against ciprofloxacin-resistant mutant
[9] = tested on: E. coli BW25113 ΔtolC cipR isolate GyrB Ser464Phe; test: MIC against ciprofloxacin-resistant mutant
Acinetobacter baumannii = test: MIC, microdilution in 96-well plates; type: cell-based; settings: Table 7, separate set of experiments, read-out: MIC
In short: (§1)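 Inoculum 1:10000 (LB, log-phase subculture). Triplicate twofold dilutions plus DMSO column. 37° C., shaken, 16-18 h. Lowest non-turbid well = MIC. CLSI method.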

E. coli BW25113 = test: MIC, microdilution in 96-well plates; type: cell-based; settings: Escherichia coli, read-out: MIC
In short: as §1

Edwardsiella tarda = test: MIC, microdilution in 96-well plates; type: cell-based; settings: read-out: MIC
In short: as §1

Enterobacter aerogenes = test: MIC, microdilution in 96-well plates; type: cell-based; settings: Klebsiella aerogenes, Enterobacter aerogenes; Table 7, separate set of experiments; read-out: MIC
In short: as §1

Pseudomonas aeruginosa = test: MIC, microdilution in 96-well plates; type: cell-based; settings: Table 7, separate set of experiments, read-out: MIC
In short: as §1

Bacillus cereus = test: MIC, 20-strain panel; type: cell-based
In short: as §1

Bacillus subtilis 168 = test: MIC, 20-strain panel; type: cell-based
In short: as §1

E. coli JW5503 (deltolC) = test: MIC, 20-strain panel; type: cell-based; settings: Escherichia coli
In short: as §1

E. coli MG1655 = test: MIC, 20-strain panel; type: cell-based; settings: Escherichia coli, read-out: MIC
In short: as §1

Enterococcus faecalis = test: MIC, 20-strain panel; type: cell-based; settings: Table 7, separate set of experiments
In short: as §1

Enterococcus faecium = test: MIC, 20-strain panel; type: cell-based
In short: as §1

[10] = tested on: Klebsiella pneumoniae subsp. pneumoniae; test: MIC, 20-strain panel; type: cell-based; settings: read-out: MIC
In short: as §1

[11] = tested on: Morganella morganii subsp. morganii; test: MIC, 20-strain panel; type: cell-based; settings: Morganella morganii subsp. morganii; Table 7, separate set of experiments; read-out: MIC
In short: as §1

[12] = tested on: Salmonella enterica subsp. enterica typhimurium; test: MIC, 20-strain panel; type: cell-based
In short: as §1

Shigella flexneri = test: MIC, 20-strain panel; type: cell-based
In short: as §1

[13] = tested on: Staphylococcus aureus subsp. aureus; test: MIC, 20-strain panel; type: cell-based; settings: read-out: MIC
In short: as §1

[14] = tested on: Staphylococcus epidermidis; test: MIC, 20-strain panel; type: cell-based; settings: read-out: MIC
In short: as §1

[15] = tested on: Staphylococcus saprophyticus subsp. saprophyticus; test: MIC, 20-strain panel; type: cell-based; settings: read-out: MIC
In short: as §1

Streptococcus agalactiae = test: MIC, 20-strain panel; type: cell-based; settings: read-out: MIC
In short: as §1

Streptococcus pyogenes = test: MIC, 20-strain panel; type: cell-based; settings: read-out: MIC
In short: as §1

[16] = tested on: ciprofloxacin resistant strains of E. coli; test: MIC against ciprofloxacin resistant strains compared to parent strain; settings: ratio to MIC of parent strain E. coli BW25113 ΔtolC
[17] = Escherichia coli, BW25113, E. coli BW25113 ΔtolC (parent strain), Table 4
[18] = BW25113, E. coli BW25113, Table 7, separate set of experiments
[19] = Table 7, separate set of experiments
[20] = 20-strain screen of Table 6, read-out: MIC
[21] = E. coli JW5503 (deltolC), Table 7, separate set of experiments
[22] = MG1655, E. coli MG1655, Table 7, separate set of experiments
[23] = E: Klebsiella pneumoniae subsp. pneumoniae
[24] = Klebsiella pneumoniae subsp. pneumoniae, Table 7, separate set of experiments
[25] = F: Salmonella enterica subsp. enterica Typhimurium
[26] = Salmonella enterica subsp. enterica typhimurium, Table 7, separate set of experiments
[27] = H: Staphylococcus aureus subsp. aureus
[28] = Staphylococcus aureus subsp. aureus, Table 7, separate set of experiments
[29] = I: Staphylococcus saprophyticus subsp. saprophyticus
[30] = Staphylococcus saprophyticus subsp. saprophyticus, Table 7, separate set of experiments
[31] = Table 7, separate set of experiments, read-out: MIC

## O=C(O)c1cn(C2CC2)c2cc(N3CCNCC3)c(F)cc2c1=O [Ciprofloxacin, ciprofloxacin]
E. coli BW25113 ΔtolC; [17]
  MIC: 0.005 µM (≈ 0.00166 µg/mL)
E. coli BW25113 ΔtolC; Escherichia coli, BW25113, E. coli BW25113 ΔtolC (parent strain), Table 5
  MIC: 0.00625 µM (≈ 0.00207 µg/mL)
[1]; Escherichia coli, BW25113
  MIC: 0.005 µM (≈ 0.00166 µg/mL)
[2]; Escherichia coli, BW25113
  MIC: 0.005 µM (≈ 0.00166 µg/mL)
[3]; Escherichia coli, BW25113
  MIC: 0.01 µM (≈ 0.00331 µg/mL)
[4]; Escherichia coli, BW25113
  MIC: 0.01 µM (≈ 0.00331 µg/mL)
[5]; Escherichia coli, BW25113
  MIC: 0.01 µM (≈ 0.00331 µg/mL)
[6]; Escherichia coli, BW25113
  MIC: 0.2 µM (≈ 0.0663 µg/mL)
[7]; Escherichia coli, BW25113
  MIC: 0.05 µM (≈ 0.0166 µg/mL)
[8]; Escherichia coli, BW25113
  MIC: 0.1 µM (≈ 0.0331 µg/mL)
[9]; Escherichia coli, BW25113
  MIC: 0.05 µM (≈ 0.0166 µg/mL)

## Cc1ccc(C(F)(F)F)cc1S(=O)(=O)N[C@@H]1CCN(Cc2ccc(OC3CC3)cc2)C1 [Compound 91]
Acinetobacter baumannii
  MIC: > 16 µg/mL
E. coli BW25113; BW25113, B: E. coli BW25113
  MIC: 8 µg/mL (≈ 17.6 µM)
E. coli BW25113; [18]
  MIC: 8 µg/mL (≈ 17.6 µM)
Edwardsiella tarda; D: Edwardsiella tarda
  MIC: 8 µg/mL (≈ 17.6 µM)
Edwardsiella tarda; [19]
  MIC: 8 µg/mL (≈ 17.6 µM)
Enterobacter aerogenes
  MIC: > 16 µg/mL
Pseudomonas aeruginosa
  MIC: > 16 µg/mL
Bacillus cereus; [20]
  MIC: 8 µg/mL (≈ 17.6 µM)
Bacillus cereus; [19]
  MIC: 8 µg/mL (≈ 17.6 µM)
Bacillus subtilis 168; [20]
  MIC: 8 µg/mL (≈ 17.6 µM)
Bacillus subtilis 168; [19]
  MIC: 8 µg/mL (≈ 17.6 µM)
E. coli JW5503 (deltolC); C: E. coli JW5503 (deltolC)
  MIC: < 0.0625 µg/mL
E. coli JW5503 (deltolC); [21]
  MIC: < 0.0078 µg/mL
E. coli MG1655; MG1655, A: E. coli MG1655
  MIC: 4 µg/mL (≈ 8.8 µM)
E. coli MG1655; [22]
  MIC: 8 µg/mL (≈ 17.6 µM)
Enterococcus faecalis
  MIC: 16 µg/mL (≈ 35.2 µM)
Enterococcus faecium; [20]
  MIC: 8 µg/mL (≈ 17.6 µM)
Enterococcus faecium; [19]
  MIC: 8 µg/mL (≈ 17.6 µM)
[10]; [23]
  MIC: > 8 µg/mL
[10]; [24]
  MIC: > 16 µg/mL
[11]
  MIC: > 16 µg/mL
[12]; [25]
  MIC: 4 µg/mL (≈ 8.8 µM)
[12]; [26]
  MIC: 4 µg/mL (≈ 8.8 µM)
Shigella flexneri; G: Shigella flexneri
  MIC: 8 µg/mL (≈ 17.6 µM)
Shigella flexneri; [19]
  MIC: 4 µg/mL (≈ 8.8 µM)
[13]; [27]
  MIC: 4 µg/mL (≈ 8.8 µM)
[13]; [28]
  MIC: 8 µg/mL (≈ 17.6 µM)
[14]; J: Staphylococcus epidermidis
  MIC: 2 µg/mL (≈ 4.4 µM)
[14]; [19]
  MIC: 8 µg/mL (≈ 17.6 µM)
[15]; [29]
  MIC: 8 µg/mL (≈ 17.6 µM)
[15]; [30]
  MIC: 8 µg/mL (≈ 17.6 µM)
Streptococcus agalactiae; K: Streptococcus agalactiae
  MIC: 8 µg/mL (≈ 17.6 µM)
Streptococcus agalactiae; [19]
  MIC: 8 µg/mL (≈ 17.6 µM)
Streptococcus pyogenes; L: Streptococcus pyogenes
  MIC: 4 µg/mL (≈ 8.8 µM)
Streptococcus pyogenes; [19]
  MIC: 4 µg/mL (≈ 8.8 µM)

## Cc1ccc(C#N)cc1S(=O)(=O)N[C@@H]1CCN(Cc2ccc(-c3ccccc3)cc2)C1 [Compound 143]
Acinetobacter baumannii
  MIC: > 16 µg/mL
E. coli BW25113; BW25113, B: E. coli BW25113
  MIC: ~8 µg/mL (≈ 18.5 µM)
E. coli BW25113; [18]
  MIC: 8 µg/mL (≈ 18.5 µM)
Edwardsiella tarda; D: Edwardsiella tarda
  MIC: ~8 µg/mL (≈ 18.5 µM)
Edwardsiella tarda; [19]
  MIC: 8 µg/mL (≈ 18.5 µM)
Enterobacter aerogenes
  MIC: > 16 µg/mL
Pseudomonas aeruginosa
  MIC: > 16 µg/mL
Bacillus cereus; [31]
  MIC: > 16 µg/mL
Bacillus subtilis 168; [31]
  MIC: > 16 µg/mL
E. coli JW5503 (deltolC); C: E. coli JW5503 (deltolC)
  MIC: < 0.0625 µg/mL
E. coli JW5503 (deltolC); [21]
  MIC: < 0.0078 µg/mL
E. coli MG1655; MG1655, A: E. coli MG1655
  MIC: 8 µg/mL (≈ 18.5 µM)
E. coli MG1655; [22]
  MIC: 16 µg/mL (≈ 37.1 µM)
Enterococcus faecalis
  MIC: > 16 µg/mL
Enterococcus faecium; [31]
  MIC: > 16 µg/mL
[10]; [23]
  MIC: > 8 µg/mL
[10]; [24]
  MIC: > 16 µg/mL
[11]
  MIC: > 16 µg/mL
[12]; [25]
  MIC: 1 µg/mL (≈ 2.32 µM)
[12]; [26]
  MIC: 2 µg/mL (≈ 4.63 µM)
Shigella flexneri; G: Shigella flexneri
  MIC: 4 µg/mL (≈ 9.27 µM)
Shigella flexneri; [19]
  MIC: 4 µg/mL (≈ 9.27 µM)
[13]; [27]
  MIC: > 8 µg/mL
[13]; [28]
  MIC: > 16 µg/mL
[14]; J: Staphylococcus epidermidis
  MIC: ~8 µg/mL (≈ 18.5 µM)
[14]; [19]
  MIC: > 16 µg/mL
[15]; [29]
  MIC: > 8 µg/mL
[15]; [30]
  MIC: > 16 µg/mL
Streptococcus agalactiae; K: Streptococcus agalactiae
  MIC: > 8 µg/mL
Streptococcus agalactiae; [19]
  MIC: > 16 µg/mL
Streptococcus pyogenes; L: Streptococcus pyogenes
  MIC: > 8 µg/mL
Streptococcus pyogenes; [19]
  MIC: > 16 µg/mL

## Cc1ccc(F)cc1S(=O)(=O)NC1CCN(Cc2ccc(OC(C)C)cc2)C1 (stereo not drawn) [Gyramide A]
E. coli BW25113 ΔtolC; E. coli BW25113 ΔtolC (parent strain), Table 4
  MIC: 20 µM (≈ 8.13 µg/mL)
[1]; gyrR isolate GyrA Pro35Thr
  MIC: 320 µM (≈ 130 µg/mL)
[2]; gyrR isolate GyrA Ser97Pro
  MIC: 320 µM (≈ 130 µg/mL)
[3]; gyrR isolate GyrA Phe96Leu
  MIC: 320 µM (≈ 130 µg/mL)
[4]; gyrR isolate GyrA His45Tyr
  MIC: 320 µM (≈ 130 µg/mL)
[5]; gyrR isolate GyrB Thr508Met
  MIC: 320 µM (≈ 130 µg/mL)

## Cc1ccc(F)cc1S(=O)(=O)NC1CCN(Cc2ccc(-c3ccccc3)cc2)C1 (stereo not drawn) [Gyramide C]
E. coli BW25113 ΔtolC; E. coli BW25113 ΔtolC (parent strain), Table 5
  MIC: 2.5 µM (≈ 1.06 µg/mL)
[6]; cipR isolate GyrA Ser83Leu
  MIC: 2.5 µM (≈ 1.06 µg/mL)
[7]; cipR isolate GyrA Asp87Gly
  MIC: 5 µM (≈ 2.12 µg/mL)
[8]; cipR isolate GyrA Asp87Tyr
  MIC: 5 µM (≈ 2.12 µg/mL)
[9]; cipR isolate GyrB Ser464Phe
  MIC: 10 µM (≈ 4.25 µg/mL)
[16]
  MIC against ciprofloxacin resistant strains compared to the parent strain: 1-4 times

## CO[C@@H]1[C@@H](OC(N)=O)[C@@H](O)[C@H](Oc2ccc3c(O)c(NC(=O)c4ccc(O)c(CC=C(C)C)c4)c(=O)oc3c2C)OC1(C)C [Novobiocin, novobiocin]
E. coli BW25113 ΔtolC; [17]
  MIC: 1.25 µM (≈ 0.766 µg/mL)
[1]; Escherichia coli, BW25113
  MIC: 1.25 µM (≈ 0.766 µg/mL)
[2]; Escherichia coli, BW25113
  MIC: 1.25 µM (≈ 0.766 µg/mL)
[3]; Escherichia coli, BW25113
  MIC: 1.25 µM (≈ 0.766 µg/mL)
[4]; Escherichia coli, BW25113
  MIC: 1.25 µM (≈ 0.766 µg/mL)
[5]; Escherichia coli, BW25113
  MIC: 1.25 µM (≈ 0.766 µg/mL)
